Reference: the kinase profiling compilation of Christmann-Franck et al. (2016)

Key:
Assay in all cases: radiometric filter-binding kinase assay
PKN2 (human) = PKN2 (human) (UniProt Q16513)
IGF1R (human) = IGF1R (human) (UniProt P08069)
PAK6 (human) = PAK6 (human) (UniProt Q9NQU5)
MAPK10 (human) = MAPK10 (human) (UniProt P53779)
HIPK2 (human) = HIPK2 (human) (UniProt Q9H2X6)
MYLK (human) = MYLK (human) (UniProt Q15746)
RPS6KA5 KD1 KD2 (human) = RPS6KA5 KD1 KD2 (human) (UniProt O75582)
MKNK2 (human) = MKNK2 (human) (UniProt Q9HBH9)
MAP3K11 (human) = MAP3K11 (human) (UniProt Q16584)
EPHA4 (human) = EPHA4 (human) (UniProt P54764)
EPHA4 (human), sequence (P54764 whole entry, looked up): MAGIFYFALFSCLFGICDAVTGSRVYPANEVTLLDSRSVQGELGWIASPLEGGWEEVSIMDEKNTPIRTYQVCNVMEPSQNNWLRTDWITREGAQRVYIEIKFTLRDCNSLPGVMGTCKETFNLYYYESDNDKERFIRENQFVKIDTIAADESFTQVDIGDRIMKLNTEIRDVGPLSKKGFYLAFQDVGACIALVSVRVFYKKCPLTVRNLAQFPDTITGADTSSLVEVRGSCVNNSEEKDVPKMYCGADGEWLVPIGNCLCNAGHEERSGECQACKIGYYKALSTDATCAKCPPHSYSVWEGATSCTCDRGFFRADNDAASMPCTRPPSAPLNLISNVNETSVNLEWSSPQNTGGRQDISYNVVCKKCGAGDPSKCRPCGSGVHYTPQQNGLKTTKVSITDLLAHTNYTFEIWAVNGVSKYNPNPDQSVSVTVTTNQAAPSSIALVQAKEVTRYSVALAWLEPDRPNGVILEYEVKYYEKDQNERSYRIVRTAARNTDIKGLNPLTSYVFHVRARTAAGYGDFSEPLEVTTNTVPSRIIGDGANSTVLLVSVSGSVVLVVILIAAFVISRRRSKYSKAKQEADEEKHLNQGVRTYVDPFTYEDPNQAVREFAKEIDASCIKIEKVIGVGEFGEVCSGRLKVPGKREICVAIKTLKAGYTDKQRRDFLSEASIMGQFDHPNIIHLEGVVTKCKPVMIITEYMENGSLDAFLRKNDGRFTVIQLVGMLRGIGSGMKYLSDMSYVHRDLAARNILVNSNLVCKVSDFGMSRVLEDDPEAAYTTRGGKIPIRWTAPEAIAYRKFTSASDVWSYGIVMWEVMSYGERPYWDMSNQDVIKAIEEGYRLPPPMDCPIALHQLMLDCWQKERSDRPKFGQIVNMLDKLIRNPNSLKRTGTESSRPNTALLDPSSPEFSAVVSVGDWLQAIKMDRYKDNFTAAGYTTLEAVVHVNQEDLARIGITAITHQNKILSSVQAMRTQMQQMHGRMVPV

DAPK1 (human) = DAPK1 (human) (UniProt P53355)
BRSK1 (human) = BRSK1 (human) (UniProt Q8TDC3)
IRAK1 (human) = IRAK1 (human) (UniProt P51617)
EPHB3 (human) = EPHB3 (human) (UniProt P54753)
MAPKAPK5 (human) = MAPKAPK5 (human) (UniProt Q8IW41)
FLT1 (human) = FLT1 (human) (UniProt P17948)
FLT1 (human), sequence (P17948 whole entry, looked up): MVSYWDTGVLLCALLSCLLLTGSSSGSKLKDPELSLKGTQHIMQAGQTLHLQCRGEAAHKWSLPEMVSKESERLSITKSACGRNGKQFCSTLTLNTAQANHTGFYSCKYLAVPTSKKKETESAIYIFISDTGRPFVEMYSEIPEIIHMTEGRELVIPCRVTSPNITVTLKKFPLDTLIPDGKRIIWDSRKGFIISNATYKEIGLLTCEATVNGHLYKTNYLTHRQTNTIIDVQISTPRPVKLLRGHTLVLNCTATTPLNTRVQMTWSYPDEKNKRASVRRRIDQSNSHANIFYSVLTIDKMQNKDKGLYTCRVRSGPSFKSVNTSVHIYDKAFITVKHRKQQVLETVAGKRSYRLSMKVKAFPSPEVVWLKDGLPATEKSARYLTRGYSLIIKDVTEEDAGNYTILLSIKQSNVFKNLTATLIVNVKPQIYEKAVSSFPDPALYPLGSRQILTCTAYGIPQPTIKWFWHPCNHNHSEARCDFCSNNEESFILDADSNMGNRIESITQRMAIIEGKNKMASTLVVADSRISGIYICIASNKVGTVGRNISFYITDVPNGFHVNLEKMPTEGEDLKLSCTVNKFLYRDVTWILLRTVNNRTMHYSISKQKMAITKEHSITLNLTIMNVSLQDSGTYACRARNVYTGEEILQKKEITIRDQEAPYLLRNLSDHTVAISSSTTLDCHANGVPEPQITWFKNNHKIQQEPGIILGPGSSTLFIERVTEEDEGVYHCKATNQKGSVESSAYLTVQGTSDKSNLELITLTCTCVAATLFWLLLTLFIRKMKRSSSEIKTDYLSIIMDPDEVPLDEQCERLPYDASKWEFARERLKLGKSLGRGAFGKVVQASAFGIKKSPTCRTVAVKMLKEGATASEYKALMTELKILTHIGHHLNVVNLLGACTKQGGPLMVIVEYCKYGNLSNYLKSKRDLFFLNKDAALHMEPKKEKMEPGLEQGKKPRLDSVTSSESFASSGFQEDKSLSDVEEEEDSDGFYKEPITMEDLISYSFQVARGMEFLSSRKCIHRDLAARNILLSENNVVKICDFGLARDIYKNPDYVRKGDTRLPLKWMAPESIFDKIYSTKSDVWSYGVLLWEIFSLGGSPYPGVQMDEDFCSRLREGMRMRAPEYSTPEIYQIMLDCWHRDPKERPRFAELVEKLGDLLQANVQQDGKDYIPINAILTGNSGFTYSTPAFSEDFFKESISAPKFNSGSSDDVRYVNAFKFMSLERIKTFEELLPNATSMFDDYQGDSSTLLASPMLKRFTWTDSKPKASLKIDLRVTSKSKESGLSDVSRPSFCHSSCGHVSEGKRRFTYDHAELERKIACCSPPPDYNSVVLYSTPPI

NTRK1 (human) = NTRK1 (human) (UniProt P04629)
BRSK2 (human) = BRSK2 (human) (UniProt Q8IWQ3)
PRKAA1 or PRKAA2 (rat) = details: accession and sequence are those of the human protein
[1] = system: AKT1 (human), P31749 [S473D]
IRAK4 (human) = IRAK4 (human) (UniProt Q9NWZ3)
PAK7 (human) = PAK7 (human) (UniProt Q9P286)
PAK7 (human), sequence (Q9P286 whole entry, looked up): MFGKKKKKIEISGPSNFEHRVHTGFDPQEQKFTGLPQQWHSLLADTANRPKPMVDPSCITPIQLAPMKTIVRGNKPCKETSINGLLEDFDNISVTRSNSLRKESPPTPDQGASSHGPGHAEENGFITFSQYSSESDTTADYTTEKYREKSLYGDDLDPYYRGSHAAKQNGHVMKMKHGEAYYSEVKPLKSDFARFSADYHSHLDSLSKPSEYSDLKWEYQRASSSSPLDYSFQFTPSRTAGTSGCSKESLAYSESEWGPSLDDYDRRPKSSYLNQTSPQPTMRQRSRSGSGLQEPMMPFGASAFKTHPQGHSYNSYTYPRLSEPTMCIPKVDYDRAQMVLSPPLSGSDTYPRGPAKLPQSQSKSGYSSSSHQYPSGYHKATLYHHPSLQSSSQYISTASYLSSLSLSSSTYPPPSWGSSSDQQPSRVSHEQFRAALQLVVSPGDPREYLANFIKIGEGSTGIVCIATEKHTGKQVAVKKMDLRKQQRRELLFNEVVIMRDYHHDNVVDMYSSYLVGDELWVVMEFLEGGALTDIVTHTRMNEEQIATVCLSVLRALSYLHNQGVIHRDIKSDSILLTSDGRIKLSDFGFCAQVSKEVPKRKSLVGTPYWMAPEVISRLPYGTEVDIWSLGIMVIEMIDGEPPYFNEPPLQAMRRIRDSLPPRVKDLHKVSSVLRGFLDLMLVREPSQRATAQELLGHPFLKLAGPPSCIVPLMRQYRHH

MAPK8 (human) = MAPK8 (human) (UniProt P45983)
PRKCZ (human) = PRKCZ (human) (UniProt Q05513)
MELK (human) = MELK (human) (UniProt Q14680)
MELK (human), sequence (Q14680 whole entry, looked up): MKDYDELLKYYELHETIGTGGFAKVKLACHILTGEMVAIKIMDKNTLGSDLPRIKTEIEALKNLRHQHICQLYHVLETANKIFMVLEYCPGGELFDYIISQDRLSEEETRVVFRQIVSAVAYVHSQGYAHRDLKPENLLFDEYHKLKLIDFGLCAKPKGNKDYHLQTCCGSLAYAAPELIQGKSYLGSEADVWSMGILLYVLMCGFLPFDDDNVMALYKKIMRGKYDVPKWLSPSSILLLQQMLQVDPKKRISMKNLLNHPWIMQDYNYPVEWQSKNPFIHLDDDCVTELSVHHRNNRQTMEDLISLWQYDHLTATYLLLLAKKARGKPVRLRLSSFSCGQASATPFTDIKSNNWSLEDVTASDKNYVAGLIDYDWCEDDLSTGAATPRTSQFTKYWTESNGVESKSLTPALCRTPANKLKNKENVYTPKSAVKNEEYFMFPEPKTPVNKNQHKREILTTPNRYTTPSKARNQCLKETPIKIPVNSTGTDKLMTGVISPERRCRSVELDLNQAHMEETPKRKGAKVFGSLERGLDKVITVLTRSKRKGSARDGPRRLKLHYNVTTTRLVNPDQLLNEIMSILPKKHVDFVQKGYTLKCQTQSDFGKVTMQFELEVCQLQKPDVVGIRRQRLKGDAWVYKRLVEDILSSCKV

MAPK3 (human) = MAPK3 (human) (UniProt P27361)
MAPK3 (human), sequence (P27361 whole entry, looked up): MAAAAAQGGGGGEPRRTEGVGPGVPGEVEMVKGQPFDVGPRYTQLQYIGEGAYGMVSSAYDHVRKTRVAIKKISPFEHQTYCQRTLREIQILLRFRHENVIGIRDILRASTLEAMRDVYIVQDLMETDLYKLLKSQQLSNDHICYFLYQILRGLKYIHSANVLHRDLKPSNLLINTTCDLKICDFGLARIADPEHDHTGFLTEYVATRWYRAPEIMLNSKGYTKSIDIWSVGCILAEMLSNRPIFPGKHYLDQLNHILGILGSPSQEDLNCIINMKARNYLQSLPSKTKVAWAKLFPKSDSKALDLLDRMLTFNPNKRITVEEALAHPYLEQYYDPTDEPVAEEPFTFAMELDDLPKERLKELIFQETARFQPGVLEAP

FGFR1 (human) = FGFR1 (human) (UniProt P11362)
MAP3K9 (human) = MAP3K9 (human) (UniProt P80192)

PAK6 (human), sequence (Q9NQU5 whole entry, looked up): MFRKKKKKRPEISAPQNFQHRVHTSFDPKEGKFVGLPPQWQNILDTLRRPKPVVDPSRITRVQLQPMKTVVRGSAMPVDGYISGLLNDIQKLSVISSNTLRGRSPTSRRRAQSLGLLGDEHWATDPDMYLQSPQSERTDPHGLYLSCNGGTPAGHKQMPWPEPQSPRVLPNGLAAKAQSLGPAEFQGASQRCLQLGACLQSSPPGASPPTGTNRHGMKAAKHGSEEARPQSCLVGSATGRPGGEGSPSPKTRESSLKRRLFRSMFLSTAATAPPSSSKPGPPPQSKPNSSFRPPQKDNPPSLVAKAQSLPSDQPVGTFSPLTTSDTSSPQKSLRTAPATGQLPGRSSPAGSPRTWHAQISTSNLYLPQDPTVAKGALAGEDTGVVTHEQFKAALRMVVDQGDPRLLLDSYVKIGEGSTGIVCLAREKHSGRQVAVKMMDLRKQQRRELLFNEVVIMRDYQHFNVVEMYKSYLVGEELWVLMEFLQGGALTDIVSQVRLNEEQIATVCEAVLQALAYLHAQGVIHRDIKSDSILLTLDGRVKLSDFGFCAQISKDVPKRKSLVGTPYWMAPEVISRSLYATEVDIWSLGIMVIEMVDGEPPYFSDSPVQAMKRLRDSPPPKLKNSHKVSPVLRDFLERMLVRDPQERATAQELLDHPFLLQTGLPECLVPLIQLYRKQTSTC

Molecule CCN1CCN(Cc2ccc(NC(=O)c3ccc(C)c(Oc4ccnc5[nH]ccc45)c3)cc2C(F)(F)F)CC1 has a residual activity (PKN2 (human); compound 0.1 µM) of 102%, a residual activity (PKN2 (human); compound 1.0 µM) of 93.3% and a residual activity (PKN2 (human); compound 10.0 µM) of 78.6%. For the same molecule, the residual activity (IGF1R (human); compound 0.1 µM) was 107%, the residual activity (IGF1R (human); compound 1.0 µM) was 84.8% and the residual activity (IGF1R (human); compound 10.0 µM) was 6.46%. The residual activity (PAK6 (human); compound 0.1 µM) was 104%, the residual activity (PAK6 (human); compound 1.0 µM) was 90.4% and the residual activity (PAK6 (human); compound 10.0 µM) was 94%. For the same molecule, the residual activity (MAPK10 (human); compound 0.1 µM) was 116%, the residual activity (MAPK10 (human); compound 1.0 µM) was 91.8% and the residual activity (MAPK10 (human); compound 10.0 µM) was 31.8%. The residual activity (HIPK2 (human); compound 0.1 µM) was 105%, the residual activity (HIPK2 (human); compound 1.0 µM) was 60.3% and the residual activity (HIPK2 (human); compound 10.0 µM) was 12.6%. It also gave a residual activity (MYLK (human); compound 0.1 µM) of 109%, a residual activity (MYLK (human); compound 1.0 µM) of 89.4% and a residual activity (MYLK (human); compound 10.0 µM) of 76.7%. The residual activity (RPS6KA5 KD1 KD2 (human); compound 0.1 µM) was 81.2%, the residual activity (RPS6KA5 KD1 KD2 (human); compound 1.0 µM) was 45.8% and the residual activity (RPS6KA5 KD1 KD2 (human); compound 10.0 µM) was 21.4%. For the same molecule, the residual activity (MKNK2 (human); compound 0.1 µM) was 109%, the residual activity (MKNK2 (human); compound 1.0 µM) was 112% and the residual activity (MKNK2 (human); compound 10.0 µM) was 82.8%. For the same molecule, the residual activity (MAP3K11 (human); compound 0.1 µM) was 95.1%, the residual activity (MAP3K11 (human); compound 1.0 µM) was 50.3% and the residual activity (MAP3K11 (human); compound 10.0 µM) was 8.66%. For the same molecule, the residual activity (EPHA4 (human); compound 0.1 µM) was 96.3%, the residual activity (EPHA4 (human); compound 1.0 µM) was 28.7% and the residual activity (EPHA4 (human); compound 10.0 µM) was 7.58%. It also gave a residual activity (DAPK1 (human); compound 1.0 µM) of 80.9%, a residual activity (DAPK1 (human); compound 10.0 µM) of 84.1% and a residual activity (BRSK1 (human); compound 0.1 µM) of 101%. The residual activity (BRSK1 (human); compound 1.0 µM) was 96.2%, the residual activity (BRSK1 (human); compound 10.0 µM) was 109% and the residual activity (IRAK1 (human); compound 0.1 µM) was 80.9%. The residual activity (IRAK1 (human); compound 1.0 µM) was 72.2%, the residual activity (IRAK1 (human); compound 10.0 µM) was 33.4% and the residual activity (EPHB3 (human); compound 0.1 µM) was 96.6%. The residual activity (EPHB3 (human); compound 1.0 µM) was 29.5%, the residual activity (EPHB3 (human); compound 10.0 µM) was 7.66% and the residual activity (MAPKAPK5 (human); compound 0.1 µM) was 105%. The residual activity (MAPKAPK5 (human); compound 1.0 µM) was 97.4%, the residual activity (MAPKAPK5 (human); compound 10.0 µM) was 92.2% and the residual activity (FLT1 (human); compound 0.1 µM) was 69.5%. For the same molecule, the residual activity (FLT1 (human); compound 1.0 µM) was 15.2%, the residual activity (FLT1 (human); compound 10.0 µM) was 2.74% and the residual activity (NTRK1 (human); compound 0.1 µM) was 111%. For the same molecule, the residual activity (NTRK1 (human); compound 1.0 µM) was 77.7%, the residual activity (NTRK1 (human); compound 10.0 µM) was 43.4% and the residual activity (BRSK2 (human); compound 0.1 µM) was 100%. The residual activity (BRSK2 (human); compound 1.0 µM) was 94.8%, the residual activity (BRSK2 (human); compound 10.0 µM) was 88.8% and the residual activity (PRKAA1 or PRKAA2 (rat); compound 0.1 µM) was 106%. For the same molecule, the residual activity (PRKAA1 or PRKAA2 (rat); compound 1.0 µM) was 91.7%, the residual activity (PRKAA1 or PRKAA2 (rat); compound 10.0 µM) was 85.2% and the residual activity ([1]; compound 0.1 µM) was 105%. It also gave a residual activity ([1]; compound 1.0 µM) of 100%, a residual activity ([1]; compound 10.0 µM) of 69% and a residual activity (IRAK4 (human); compound 0.1 µM) of 98.6%. It also gave a residual activity (IRAK4 (human); compound 1.0 µM) of 102%, a residual activity (PAK7 (human); compound 0.1 µM) of 108% and a residual activity (PAK7 (human); compound 1.0 µM) of 104%. For the same molecule, the residual activity (PAK7 (human); compound 10.0 µM) was 87.5%, the residual activity (MAPK8 (human); compound 0.1 µM) was 93.8% and the residual activity (MAPK8 (human); compound 1.0 µM) was 61.6%. The residual activity (MAPK8 (human); compound 10.0 µM) was 14.4%, the residual activity (PRKCZ (human); compound 0.1 µM) was 99.4% and the residual activity (PRKCZ (human); compound 1.0 µM) was 96%. For the same molecule, the residual activity (PRKCZ (human); compound 10.0 µM) was 92.7%, the residual activity (MELK (human); compound 0.1 µM) was 115% and the residual activity (MELK (human); compound 1.0 µM) was 99.5%. It also gave a residual activity (MELK (human); compound 10.0 µM) of 64.1%, a residual activity (MAPK3 (human); compound 0.1 µM) of 99% and a residual activity (MAPK3 (human); compound 1.0 µM) of 103%. It also gave a residual activity (MAPK3 (human); compound 10.0 µM) of 99.7%, a residual activity (FGFR1 (human); compound 0.1 µM) of 79.1% and a residual activity (FGFR1 (human); compound 1.0 µM) of 23.5%. For the same molecule, the residual activity (FGFR1 (human); compound 10.0 µM) was 8.48%, the residual activity (MAP3K9 (human); compound 0.1 µM) was 106% and the residual activity (MAP3K9 (human); compound 1.0 µM) was 90%. For the same molecule, the residual activity (MAP3K9 (human); compound 10.0 µM) was 39.6%.
